Measured values: PMC10817945, “Design of a novel analogue peptide with potent antibiofilm activities against Staphylococcus aureus based upon a sapecin B-derived peptide” (Scientific Reports, 2024)
Where “and” joins values, the source holds several entries; their conditions need not be identical. Equal values may be shown once.

Legend:
S. aureus isolates = assay: Kirby-Bauer disk diffusion antimicrobial susceptibility testing; type: cell-based, Staphylococcus aureus; also: key: R: Resistant; S: Susceptible
Excerpt: Three MRSA, two MSSA clinical isolates, and one S. aureus reference strain (ATCC 25923) were investigated in this study. […] The presence of the mecA/mecC gene was studied by PCR in all cefoxitin resistant isolates[42],[43].

Human red blood cells = assay: Hemolysis assay; conditions: human erythrocytes, 1 h, 37 °C
Method: The assay was performed using fresh human blood samples containing citrate phosphate dextrose anticoagulant collected from a blood bank (Iranian Blood Transfusion Organization). Human red blood cells (RBC) were centrifuged at 1700×g for 5 min; then the supernatant was removed and the erythrocyte pellet was diluted 1:100 in PBS to obtain a 1% erythrocyte suspension. […] Then, 50 μl of the 1% erythrocyte suspension and 50 μl of the peptides were mixed and added to wells of a 96-well polypropylene conical bottom microplate and incubated at 37 °C for 1 h. Following centrifugation of the samples at 1700×g for 5 min, 50 μl of the supernatant was transferred to wells of a 96-well flat-bottom plate for the absorbance measurement at 405 nm in a microplate reader. Identical volumes of Triton X-100 (1%) and PBS were used as positive and negative controls, respectively. The selectivity indexes (SI) were also determined as a toxicity indicator.

Structure (SMILES)	Antimicrobial susceptibility testing (S. aureus isolates; MRSA-1)	Antimicrobial susceptibility testing (S. aureus isolates; MRSA-2)	Antimicrobial susceptibility testing (S. aureus isolates; MRSA-3)	Antimicrobial susceptibility testing (S. aureus isolates; MSSA-1)	Antimicrobial susceptibility testing (S. aureus isolates; MSSA-2)	HC50 (Human red blood cells)
CC1(C)S[C@@H]2[C@H](NC(=O)[C@H](N)c3ccccc3)C(=O)N2[C@H]1C(=O)O [AMP, Ampicilln]	R	R	R	S	S	–
O=C(N[C@H](CO)[C@H](O)c1ccc([N+](=O)[O-])cc1)C(Cl)Cl [C, Chloramphenicol]	S	S	S	S	S	–
CC[C@H]1OC(=O)[C@H](C)[C@@H](O[C@H]2C[C@@](C)(OC)[C@@H](O)[C@H](C)O2)[C@H](C)[C@@H](O[C@@H]2O[C@H](C)C[C@H](N(C)C)[C@H]2O)[C@](C)(O)C[C@@H](C)C(=O)[C@H](C)[C@@H](O)[C@]1(C)O [E, Erythromycin]	S	S	S	S	S	–
CO/N=C(\C(=O)N[C@@H]1C(=O)N2C(C(=O)[O-])=C(C[N+]3(C)CCCC3)CS[C@H]12)c1csc(N)n1 [FEP, Cefepime]	R	R	R	S	S	–
CO[C@@]1(NC(=O)Cc2cccs2)C(=O)N2C(C(=O)O)=C(COC(N)=O)CS[C@@H]21 [FOX, Cefoxicitin]	R	R	R	S	S	–
CNC(C)C1CCC(N)C(OC2C(N)CC(N)C(OC3OCC(C)(O)C(NC)C3O)C2O)O1 (stereo not shown) [GEN, Gentamicin]	S	S	S	S	S	–
CC[C@H](C)[C@H](NC(=O)[C@H](CCCCN)NC(=O)[C@H](CCC(=O)O)NC(=O)[C@H](CCCCN)NC(=O)[C@H](CO)NC(=O)[C@H](CCCCN)NC(=O)[C@H](CCCNC(=N)N)NC(=O)[C@H](Cc1ccccc1)NC(=O)[C@H](Cc1ccccc1)NC(=O)[C@H](CC(=O)O)NC(=O)CNC(=O)[C@H](CC(C)C)NC(=O)[C@@H](N)CC(C)C)C(=O)NCC(=O)N[C@@H](CCCCN)C(=O)N[C@@H](CCC(=O)O)C(=O)N[C@@H](Cc1ccccc1)C(=O)N[C@@H](CCCCN)C(=O)N[C@@H](CCCNC(=N)N)C(=O)N[C@H](C(=O)N[C@H](C(=O)N[C@@H](CCC(N)=O)C(=O)N[C@@H](CCCNC(=N)N)C(=O)N[C@H](C(=O)N[C@@H](CCCCN)C(=O)N[C@@H](CC(=O)O)C(=O)N[C@@H](Cc1ccccc1)C(=O)N[C@@H](CC(C)C)C(=O)N[C@@H](CCCNC(=N)N)C(=O)N[C@@H](CC(N)=O)C(=O)N[C@@H](CC(C)C)C(=O)N[C@H](C(=O)N1CCC[C@H]1C(=O)N[C@@H](CCCNC(=N)N)C(=O)N[C@H](C(=O)N[C@@H](CCC(=O)O)C(=O)N[C@@H](CO)C(=O)O)[C@@H](C)O)C(C)C)[C@@H](C)CC)C(C)C)[C@@H](C)CC [LL-37]	–	–	–	–	–	150 µM and 673.5 µg/ml
